Results taken from paper PMC11874377, “Fungal-derived methyldeoxaphomins target Plasmodium falciparum segregation through the inhibition of PfActin1” (Proceedings of the National Academy of Sciences of the …, 2025).
Like-named read-outs stand apart in the source and are kept apart here.

Key:
Dd2-Pol δ parent line = test: Resistant parasite phenotyping and cross resistance, SYBR green I EC50 assay, parent line; type: cell-based, Plasmodium falciparum; conditions: strain Dd2-Pol δ -parent, read-out: EC50 (mean ± SEM)
Protocol: (§1) Cloning by limiting dilution was then performed to isolate individual lines from the bulk population. Due to the multiple mutations identified in the first biological replicate, we isolated four clones from this bulk culture as compared to two clones each from the second and third replicates. These clones were phenotyped via a SYBR green I-based dose–response assay (Table 2 and Fig. 2B). […] The DNA of these clones was then extracted and subjected to whole-genome sequencing.
(§2) Resistant parasite phenotyping and cross resistance measurement
(§3) The EC50 assay was performed at 1% parasitemia, 1% hematocrit with SYBR green I in 96-well plates. The highest final concentration of the methyldeoxaphomin NPDG-F was set at 100 μM. Briefly, the compound was subjected to a 3-fold serial dilution with ten dilution points. Three technical replicates were set up at each dilution point. The Dd2-Pol δ parent line and the resistant parasites at 2% hematocrit and 1% parasitemia were added to the drug media at 1:1 ratio. The plate was incubated at 37°C for 72 hours in a chamber filled with a hypoxic gas mixture (3% oxygen, 5% carbon dioxide, and 92% nitrogen). After incubation, the cells were lysis with lysis buffer (20 mM Tris-HCL, 0.08% saponin, 5 mM EDTA, and 0.8% Triton X-100) containing SYBR green I (10,000X, Thermo Fisher, cat # S7563) overnight. Fluorescence was measured at 485nm excitation and 530nm emission using a PHERAstar FSX plate reader (BMG Labtech, Germany). Dose response curves were graphed with Prism 9 Version 9.5.1.
3D structural analysis of the mutations and docking studies
The crystal structure of PfActin1 with accession number 6TU4 (resolution 2.60 Ang) (Vahokoski et al., 2022) was obtained from the Protein Data Bank (PDB). This structure of PfActin1 contains ligands Jasplakinolide and ADP with a coordinating magnesium ion.
Only chain A was used for the docking experiment. […] Schrodinger maestro software (Schrödinger, LLC) was used to build NPDG-F with the proper stereochemistry using the x-ray structure determined for analog NPDG-A (vide supra). […]

barbed end of F-actin = conditions: read-out: binding affinity Kd; cited from earlier work
[1] = system: in vitro evolved NPDG-F-resistant Dd2-Pol δ clones (PfActin1 mutations); test: Resistant parasite phenotyping and cross resistance, SYBR green I EC50 assay, NPDG-F-resistant clones; type: cell-based, Plasmodium falciparum; conditions: for EC50: read-out: EC50 (mean ± SEM)
Protocol: as §1
To investigate whether NPDG-F has the same mode of action as cytochalasin D, we tested our clones for sensitivity to both cytochalasin D and jasplakinolide.
as §2
as §3, with “9.5.1. […]” for “9.5.1.”

P. falciparum = test: Isobologram assay with NPDG-F; type: cell-based, Plasmodium falciparum
Protocol: To further explore the relationship of NPDG-F with established actin-interfering drugs, an isobologram study was performed (Fig. 3). NPDG-F was added in combination with four inhibtors known to interfere with actin polymerization including a formin inhibitor SMIFH2, cofilin inhibitor SZ-3, F-actin targeting compound jasplakinolide, and G-actin targeting latrunculin B. The frontline antimalarial DHA was also added as a nonactin inhibitor control. After dose–response curves were generated (Fig. 3A), the fractional inhibitory concentrations (FICs) of NPDG-F and the combination drug were calculated and graphed. […]
Plasmodium blood stage culture
Parasite culture in the Chakrabarti lab was maintained following a modified Trager and Jensen protocol (Trager & Jensen, 1976) as previously described (Lee et al., 2021) with RPMI 1640 with 25 mM HEPES pH 7.4, 26 mM NaHCO3, 15 mg/L hypoxanthine, 0.5% Albumax II, 25 mg/L gentamycin, and 2% dextrose. Parasites were grown with human A+ erythrocytes obtained from Florida OneBlood. Cultures were kept in an incubator with 5% […]
Antiplasmodial activity screening
SYBR Green I-based fluorescence assay was performed as previously described (Lee et al., 2021) following protocols by Smilkstein et. al. (Smilkstein et al., 2004). Asynchronous Dd2 parasites were added to serially diluted compounds and incubated for 72 h at 5% CO2, 95% air at 37°C. Plates were then frozen at -80°C, thawed, and incubated for one hour with 1x SYBR Green I in a lysis buffer (20 mM Tris-HCL, 0.08% saponin, 5 mM EDTA, and 0.8% Triton X-100). Fluorescence was then read on a Synergy Neo2 multimode reader (BioTek Winsooki, VT). Compound dose response curves and EC50 determination was performed using CDD Vault normalized to 10 µM CQ and vehicle […]
For isobologram assessment, inhibitors were tested using a 1:2 dilution with starting concentrations selected as 40 nM for DHA, 100 µM Latrunculin B, 100 µM SMIFH2, and 40 nM for jasplakinolide. These concentrations were selected to provide 2-3 points above […]
EC50s. The test inhibitor methyldeoxaphomin NPDG-F was then added in combination with the aforementioned inhibitors at concentrations ranging from 10 to 0.3125 µM. Dose-response curves were then generated for the available conditions where EC50s could be determined. The fractional inhibitor concentration of both compounds was then determined as described (Fivelman et al., 2004) for the available points and graphed on a scale of 0-1 also using Graphpad Prism version 10. […]

For `C=C1[C@@H](C)[C@H]2[C@H](Cc3ccccc3)NC(=O)[C@]23[C@H](OC(C)=O)/C=C/[C@@](C)(O)C(=O)[C@@H](C)C/C=C/[C@H]3[C@@H]1O` [Cytochalasin D, cytochalasin D], the EC50 (Dd2-Pol δ parent line; Plasmodium falciparum) is listed as 17.3 ± 0.5 nM, the Kd (barbed end of F-actin) is listed as about 2 nM and the “cross-resistance of NPDG-F-resistant clones” value [1] is listed as “cross-resistant”. For the same molecule, the “average EC50 shift, clones from flasks 2 and 3” value ([1]; A136S) was 3.9 fold, the “average EC50 shift, clones from flask 1” value ([1]; A171V/S and I290L clones) was 20 fold and the EC50 ([1]; Plasmodium falciparum, DD2, clone 1-C7, A171S (8%), A171V (92%), I290L) was 302 ± 8.8 nM. The EC50 ([1]; Plasmodium falciparum, DD2, clone 1-D6, A171S (3%), A171V (97%), I290L) was 317 ± 9.2 nM, the EC50 ([1]; Plasmodium falciparum, DD2, clone 1-D7, A171S (22%), A171V (78%), I290L) was 402 ± 7 nM and the EC50 ([1]; Plasmodium falciparum, DD2, clone 1-F3, A171S (4%), A171V (96%), I290L) was 367 ± 7.8 nM. The EC50 ([1]; Plasmodium falciparum, DD2, clone 2-C4, A136S) was 60.8 ± 0.8 nM, the EC50 ([1]; Plasmodium falciparum, DD2, clone 2-F5, A136S) was 71.3 ± 1.7 nM and the EC50 ([1]; Plasmodium falciparum, DD2, clone 3-C3, A136S) was 66.4 ± 0.2 nM. The EC50 ([1]; Plasmodium falciparum, DD2, clone 3-C5, A136S) was 73.2 ± 0.7 nM, the Fold change ([1]; clone 1-C7 vs Dd2-Pol δ parent) was 17.5 and the Fold change ([1]; clone 1-D6 vs Dd2-Pol δ parent) was 18.3. The Fold change ([1]; clone 1-D7 vs Dd2-Pol δ parent) was 23.3, the Fold change ([1]; clone 1-F3 vs Dd2-Pol δ parent) was 21.2 and the Fold change ([1]; clone 2-C4 vs Dd2-Pol δ parent) was 3.5. It also gave a Fold change ([1]; clone 2-F5 vs Dd2-Pol δ parent) of 4.1, a Fold change ([1]; clone 3-C3 vs Dd2-Pol δ parent) of 3.8 and a Fold change ([1]; clone 3-C5 vs Dd2-Pol δ parent) of 4.2.

In the case of `C/C1=C\[C@H](C)C[C@H](C)OC(=O)C[C@H](c2ccc(O)cc2)NC(=O)[C@@H](Cc2c(Br)[nH]c3ccccc23)N(C)C(=O)[C@H](C)NC(=O)[C@@H](C)C1` [Jasplakinolide, jasplakinolide], the EC50 (Dd2-Pol δ parent line) is reported as 25.1 ± 1.4 nM, the “fractional inhibitory concentration (FIC)” value (P. falciparum; combination with NPDG-F) is reported as “highest FIC values overall” and the IC50 (P. falciparum; single compounds, dose–response, Fig. 3A, read-out: Mean IC50 ± SEM) is reported as 58 ± 17 nM. The EC50 ([1]; clone 1-C7, A171S (8%), A171V (92%), I290L) was 25.2 ± 0.4 nM, the Fold change ([1]; clone 1-C7 vs Dd2-Pol δ parent) was 1.0 and the EC50 ([1]; clone 1-D6, A171S (3%), A171V (97%), I290L) was 27.6 ± 4 nM. The Fold change ([1]; clone 1-D6 vs Dd2-Pol δ parent) was 1.1, the EC50 ([1]; clone 1-D7, A171S (22%), A171V (78%), I290L) was 25.9 ± 0.8 nM and the Fold change ([1]; clone 1-D7 vs Dd2-Pol δ parent) was 1.0. The EC50 ([1]; clone 1-F3, A171S (4%), A171V (96%), I290L) was 30.7 ± 3.2 nM, the Fold change ([1]; clone 1-F3 vs Dd2-Pol δ parent) was 1.2 and the EC50 ([1]; clone 2-C4, A136S) was 22.4 nM. For the same molecule, the Fold change ([1]; clone 2-C4 vs Dd2-Pol δ parent) was 0.9, the EC50 ([1]; clone 2-F5, A136S) was 25.1 ± 2.9 nM and the Fold change ([1]; clone 2-F5 vs Dd2-Pol δ parent) was 1.0. For the same molecule, the EC50 ([1]; clone 3-C3, A136S) was 24 nM, the Fold change ([1]; clone 3-C3 vs Dd2-Pol δ parent) was 1.0 and the EC50 ([1]; clone 3-C5, A136S) was 25.4 ± 2.1 nM. For the same molecule, the Fold change ([1]; clone 3-C5 vs Dd2-Pol δ parent) was 1.0.
